Our source for the half-life and Activity values is ChEMBL document CHEMBL4219049, “Peptide therapeutics for the treatment of gastrointestinal disorders” (Bioorg Med Chem, 2018).

Bridge positions count the residues as written; N and C are the ends. Peptide text beside a SMILES is read from it.

The nature of data set [1]: Elimination half-life in human plasma at 0.8 pmol/kg.min, iv. Format: ADME, cell-free. As to conditions: read-out: beta t1/2.
Data set [2] is filed under the species Homo sapiens. Kind of data set: Toxicity in patient with irritable bowel syndrome with constipation assessed as induction of diarrhea after 26 weeks (reference value: 2.5%). Format: organism-based. The note with it: in vivo, 4368 h.
For data set [3], the species on record is Homo sapiens. Put plainly: Reduction in worst abdominal pain in patient with irritable bowel syndrome with constipation after 26 weeks (reference value: 25%). It is filed as functional. Further details: scale not given: the % may be the effect or the level left.
The species entered for data set [4] is Homo sapiens. Put plainly: Increase in complete spontaneous bowel movements in patient with chronic idiopathic constipation at 3 mg for 12 weeks (reference value: 10.2%). Format: functional.
The species named for data set [5] is Homo sapiens. Kind of data set: Increase in complete spontaneous bowel movements in patient with chronic idiopathic constipation at 6 mg for 12 weeks (reference value: 10.2%). It is filed as functional.
Data set [6] is filed under the species Homo sapiens. Kind of data set: Toxicity in patient with chronic idiopathic constipation assessed as induction of diarrhea at 6 mg for 12 weeks (reference value: 1.3%). It is filed as organism-based. As to conditions: in vivo, 2016 h.
For data set [7], the species on record is Homo sapiens. Put plainly: Toxicity in patient with chronic idiopathic constipation assessed as induction of diarrhea at 3 mg for 12 weeks (reference value: 1.3%). It is filed as organism-based. The note with it: in vivo, 2016 h.

Take `CC[C@H](C)[C@H](NC(=O)[C@H](Cc1ccccc1)NC(=O)[C@H](CC(=O)O)NC(=O)[C@H](CCCN=C(N)N)NC(=O)[C@H](C)NC(=O)[C@H](C)NC(=O)[C@H](CC(C)C)NC(=O)[C@H](CC(N)=O)NC(=O)[C@H](CC(=O)O)NC(=O)[C@H](CC(C)C)NC(=O)[C@@H](NC(=O)[C@@H](NC(=O)[C@H](CC(N)=O)NC(=O)[C@H](CCSC)NC(=O)[C@H](CCC(=O)O)NC(=O)[C@H](CC(=O)O)NC(=O)[C@H](CO)NC(=O)[C@H](Cc1ccccc1)NC(=O)[C@H](CO)NC(=O)CNC(=O)[C@H](CC(=O)O)NC(=O)[C@H](C)NC(=O)[C@@H](N)Cc1cnc[nH]1)[C@@H](C)O)[C@@H](C)CC)C(=O)N[C@@H](CC(N)=O)C(=O)N[C@@H](Cc1c[nH]c2ccccc12)C(=O)N[C@@H](CC(C)C)C(=O)N[C@H](C(=O)N[C@@H](CCC(N)=O)C(=O)N[C@H](C(=O)N[C@@H](CCCCN)C(=O)N[C@H](C(=O)N[C@H](C(=O)N[C@@H](CC(=O)O)C(=O)O)[C@@H](C)O)[C@@H](C)CC)[C@@H](C)O)[C@@H](C)CC`: the half-life in data set [1] was found to be 7.2 min.
On to `C[C@@H]1NC(=O)[C@@H]2CCCN2C(=O)[C@H](CC(N)=O)NC(=O)[C@@H]2CSSC[C@H](N)C(=O)N[C@H]3CSSC[C@H](NC1=O)C(=O)N[C@@H]([C@@H](C)O)C(=O)NCC(=O)N[C@H](C(=O)N[C@@H](Cc1ccc(O)cc1)C(=O)O)CSSC[C@H](NC(=O)[C@H](Cc1ccc(O)cc1)NC(=O)[C@H](CCC(=O)O)NC3=O)C(=O)N2` [LINACLOTIDE] (H-CCEYCCNPACTGCY-OH; disulfide 1-6, 2-10, 5-13), for which the Activity in data set [2] is listed as 19.7%; in data set [3] it was 47%.
As to `CC(C)C[C@H](NC(=O)[C@@H]1CSSC[C@@H]2NC(=O)[C@H](CC(C)C)NC(=O)[C@H](CCC(=O)O)NC(=O)[C@@H](NC(=O)[C@H](CCC(=O)O)NC(=O)[C@H](CC(=O)O)NC(=O)[C@@H](N)CC(N)=O)CSSC[C@H](NC(=O)[C@H](C)NC(=O)[C@H](C(C)C)NC(=O)[C@H](CC(N)=O)NC(=O)[C@H](C(C)C)NC2=O)C(=O)N[C@@H]([C@@H](C)O)C(=O)NCC(=O)N1)C(=O)O` [PLECANATIDE], the Activity in data set [4] is recorded as 21%; in data set [5], 19.5%; in data set [6] it was 5.7%; in data set [7] it was 5.9%.
